# Counter-ions that a name gives are not always drawn.
# Key:
# [1] = system: carrageenin-induced rat foot edema; experiment: carrageenin-induced rat foot edema test; format: in vivo, rat (male albino); conditions: 33 mg/kg, p.o., 3 hours after carrageenin, vs non-drug treated control
# Description: The activity of the compounds of the present invention as anti-inflammatoryagents may be determined by pharmacological tests, for example the standard carrageenin-induced rat foot edema test using the general procedure described by C. A. Winter et. al., see Proceedings of the Society of Experimental Biology in Medicine, Volume 111, page 544 (1962). In this test, anti-inflammatory activity is determined as the percent inhibition of edema formation in the hind paw of male albino rats (generally weighing about 150 to 190 grams) in response to a sub-plantar injection of carrageenin. The carrageenin is injected as a 1% aqueous suspension 1 hour after oral administration of the drug, which is normally given in the form of an aqueous solution or suspension. Edema formation is then assessed 3 hours after the carrageenin injection by comparing the initial volume of the injected paw and the volume after a 3 hour period. The increase in volume 3 hours after carrageenin injection constitutes the individual response. Compounds are considered active if the response between the drug-treated animals (6 rats per group) and the control group, i.e. the animals receiving the vehicle alone, is found to be significant on comparison with the results afforded by standard compounds like acetylsalicyclic acid at 100 mg/kg or phenylbutazone at 33 mg/kg, both by the oral route of administration.
# The anti-inflammatory activity of aminothiazoles of this invention was determined using the standard carrageenin-induced rat foot edema test, according to the procedure essentially as described by C. A. Winter etl. al., and reported in the Proceedings of the Society for Experimental Biology and Medicine, Vol. 111, p. 544 (1962). The compounds were administered orally in the form of their previously reported hydrohalide salts at a dose level of 33 mg/kg. The results obtained in this manner are presented in the table below in terms of the percent inhibition of edema formation afforded by each test compound as compared to the non-drug treated control (i.e., aqueous solution with no compound): […]
# murine thymus cells = experiment: in vitro stimulation of lymphocyte proliferation of murine thymus cells cultured in the presence of Concanavalin A (lymphocyte stimulation assay, LSA); format: cell-based, mouse (male C57B1/6); conditions: Con A-stimulated thymus cells, 48 h at 37° C.; for LSA activity: highest 3H-thymidine cpm of eight concentrations 0.02 to 50 μg/ml, hydrohalide salts
# Excerpt: The immune regulant activity of the compounds of the present invention may be determined by such pharmacological tests as the stimulation in vitro of lymphocyte proliferation of murine thymus cells cultured in the presence of Concanavalin A (Con A), employing the general evaluation procedure of V. J. Merluzzi et. al., see Journal of Clinical and Experimental Immunology, Volume 22, page 486 (1975).
# The immune regulant activity of the aminothiazoles described in Examples 2, 3, 4, 6, 7, 8, 10 and 11 was evaluated by determining their ability to stimulate, in vitro the lymphocyte proliferation of murine thymus cells cultured in the presence of Concanavalin A (Con A) by employing the procedure of V. J. Merluzzi et. al., as essentially described in the Journal of Clinical and Experimental Immunology, Vol. 22, p. 486 (1975). The cells were derived from male C57B1/6 mice of from 6-8 weeks age, purchased from the Jackson Laboratories of Bar Harbor, Maine and the Con A was obtained from Sigma Chemicals of St. Louis, Mo. Each cell culture (consisting of 0.10 ml thymus cells stock solution, 0.05 ml of Con A stock solution and 0.05 ml of drug solution) was performed in quadruplicate and cellular proliferation was measured, after 48 hours of incubation at 37° C., by pulsing each culture with ^3 H-thymidine (0.01 ml of specific activity 1.9 C/mM, obtained from Schwarz-Mann, Inc. of Orangeburg, N.Y.) and then determining the incorporation of ^3 H-thymidine into cellular deoxyribonucleic acid (DNA) by an assessment of radioactivity using a liquid scintillation counter. […] These quadruplicate determinations are employed at eight different concentrations of drugs in the range 0.02 to 50 μg/ml. The highest cpm value obtained is employed in the scoring system.
SMILES,% Inhibition of edema [1] [%],LSA activity (murine thymus cells),"average counts per minute of 3H-thymidine incorporated (LSA activity) (murine thymus cells; levamisole standard, drug level with maximum activity)"
COc1ccc(CCNc2nc(-c3ccc(F)cc3)cs2)cc1 [2-(p-methoxyphenethylamino)-4-(p-fluorophenyl)-thiazole],29,–,–
"Fc1ccc(-c2csc(NCc3cccs3)n2)cc1 [2-thenyl, 4-fluorophenyl, hydrogen, HBr, 2-thenylamino-4-(p-fluorophenyl)-thiazole]",49,–,–
"Br.c1ccc(CCNc2nc(-c3ccccc3)cs2)cc1 [Example 2, 2-phenethylamino-4-phenyl-thiazole hydrobromide]",47,"+++ (those having an activity (27,000±1,000 cpm) greater than levamisole were scored as +++)",–
"Br.Cc1sc(NCCc2ccccc2)nc1-c1ccccc1 [Example 3, 2-phenethylamino-4-phenyl-5-methylthiazole hydrobromide]",–,"+++ (those having an activity (27,000±1,000 cpm) greater than levamisole were scored as +++)",–
"c1ccc(-c2csc(NCc3cccs3)n2)cc1 [Example 6, 2-thenylamino-4-phenyl-thiazole hydrobromide]",–,"+++ (those having an activity (27,000±1,000 cpm) greater than levamisole were scored as +++)",–
"Fc1ccc(-c2csc(NCc3cccs3)n2)cc1 [Example 7, 2-thenylamino-4(p-fluorophenyl)-thiazole hydrochloride]",–,"+++ (those having an activity (27,000±1,000 cpm) greater than levamisole were scored as +++)",–
"Br.Cc1sc(NCc2ccco2)nc1-c1ccccc1 [Example 10, 2-furfurylamino-5-methyl-4-phenyl-thiazole hydrobromide]",–,"+++ (those having an activity (27,000±1,000 cpm) greater than levamisole were scored as +++)",–
"c1ccc([C@H]2CN3CCSC3=N2)cc1 [levamisole, reference compound]",–,–,"22,000±900 cpm"
